Test results: patent US20250313548A1 (Actio Biosciences, Inc., priority 2023, published 2025)

Target: human, KCNT1 (Homo sapiens (Human), UniProt Q5JUK3)
Test: FLIPR Tl/K Flux Assay
Assay type: cell-based
Conditions: HEK293 cells stably expressing human KCNT1; Tl+ flux stimulated with EC80 of agonist Loxapine
Outline: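 HEK293 cells stably expressing human KCNT1 were loaded with FLIPR potassium dye in HEPES/HBSS pH 7.4 with 5 mM probenecid, 1 h at 25 °C, then given test compound for 30 min at 25 °C. Tl+ flux was triggered with chloride-free buffer containing Tl+ and EC80 loxapine and read 160 s. IC50 came from Hill fits of % inhibition.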

human, KCNT1, sequence (Q5JUK3 whole entry): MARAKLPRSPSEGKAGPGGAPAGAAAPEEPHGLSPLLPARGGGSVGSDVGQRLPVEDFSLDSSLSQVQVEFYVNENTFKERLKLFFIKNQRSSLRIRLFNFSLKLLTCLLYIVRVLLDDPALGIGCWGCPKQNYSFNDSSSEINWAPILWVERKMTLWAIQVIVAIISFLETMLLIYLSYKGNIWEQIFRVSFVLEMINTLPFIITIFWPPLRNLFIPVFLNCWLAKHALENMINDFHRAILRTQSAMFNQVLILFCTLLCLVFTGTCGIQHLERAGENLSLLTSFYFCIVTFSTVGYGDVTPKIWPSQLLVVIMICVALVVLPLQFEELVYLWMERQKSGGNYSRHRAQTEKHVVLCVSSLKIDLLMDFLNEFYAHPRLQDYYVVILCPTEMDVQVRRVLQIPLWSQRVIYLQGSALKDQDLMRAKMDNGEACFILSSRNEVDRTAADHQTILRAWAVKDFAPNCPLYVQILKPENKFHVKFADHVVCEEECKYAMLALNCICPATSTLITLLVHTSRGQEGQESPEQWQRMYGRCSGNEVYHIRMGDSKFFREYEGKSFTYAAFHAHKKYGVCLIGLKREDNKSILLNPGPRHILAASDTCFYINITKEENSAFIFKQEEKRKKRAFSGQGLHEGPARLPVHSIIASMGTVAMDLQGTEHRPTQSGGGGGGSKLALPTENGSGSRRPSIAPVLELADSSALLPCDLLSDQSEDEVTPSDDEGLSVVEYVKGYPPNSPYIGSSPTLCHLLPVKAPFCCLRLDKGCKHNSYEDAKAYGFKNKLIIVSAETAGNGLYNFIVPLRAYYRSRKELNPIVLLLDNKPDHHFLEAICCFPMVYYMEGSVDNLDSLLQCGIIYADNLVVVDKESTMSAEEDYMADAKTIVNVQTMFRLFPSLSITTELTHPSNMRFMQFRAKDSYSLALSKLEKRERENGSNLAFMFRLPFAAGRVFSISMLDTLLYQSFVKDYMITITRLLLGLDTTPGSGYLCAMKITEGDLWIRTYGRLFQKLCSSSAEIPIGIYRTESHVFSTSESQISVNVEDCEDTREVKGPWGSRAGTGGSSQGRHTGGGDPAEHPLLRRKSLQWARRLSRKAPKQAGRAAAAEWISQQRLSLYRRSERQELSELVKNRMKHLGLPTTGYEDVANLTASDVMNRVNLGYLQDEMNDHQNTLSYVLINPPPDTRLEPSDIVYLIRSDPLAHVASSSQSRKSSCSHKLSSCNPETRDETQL

Question: For `COc1cncc(C(=O)N[C@H]2CCn3nc(-c4ccnc(C(F)(F)F)c4)cc32)n1` [Compound I-207a, (S)-6-Methoxy-N-(2-(2-(trifluoromethyl)pyridin-4-yl)-5,6-dihydro-4H-pyrrolo[1,2-b]pyrazol-4-yl)pyrazine-2-carboxamide], which IC50 is on record?
Answer: < 250 nM

Question: With `O=C(N[C@H]1CCCc2oc(-c3cc(C4CC4)ncc3F)nc21)c1cncc(C(F)(F)F)n1` [Compound I-208a, (S)-N-(2-(2-Cyclopropyl-5-fluoropyridin-4-yl)-4,5,6,7-tetrahydrobenzo[d]oxazol-4-yl)-6-(trifluoromethyl)pyrazine-2-carboxamide] as the compound, how does the IC50 read?
Answer: < 250 nM

Question: `Cn1nc(C(F)(F)F)cc1C(=O)N[C@H]1CCCn2nc(-c3cc(C(F)(F)F)ncc3F)cc21` [Compound I-209a, (S)-N-(2-(5-Fluoro-2-(trifluoromethyl)pyridin-4-yl)-4,5,6,7-tetrahydropyrazolo[1,5-a]pyridin-4-yl)-1-methyl-3-(trifluoromethyl)-1H-pyrazole-5-carboxamide] was tested. Which IC50 did it give?
Answer: < 250 nM

Question: How did the IC50 turn out when `COc1nc(C(=O)N[C@H]2CCn3nc(-c4ccnc(C(F)(F)F)c4)cc32)n(C)n1` [Compound I-210a, (S)-3-Methoxy-1-methyl-N-(2-(2-(trifluoromethyl)pyridin-4-yl)-5,6-dihydro-4H-pyrrolo[1,2-b]pyrazol-4-yl)-1H-1,2,4-triazole-5-carboxamide] was run?
Answer: < 250 nM

Question: For `COc1cc(-c2nc3c(o2)CCC[C@@H]3NC(=O)c2cncc(C(F)(F)F)n2)ccn1` [Compound I-211a, (S)-N-(2-(2-Methoxypyridin-4-yl)-4,5,6,7-tetrahydrobenzo[d]oxazol-4-yl)-6-(trifluoromethyl)pyrazine-2-carboxamide], which IC50 is on record?
Answer: < 250 nM

Question: How did the IC50 turn out when `COc1cc(-c2cc3n(n2)CCCC[C@@H]3NC(=O)c2cc(C(F)(F)F)nn2C)c(F)cn1` [Compound I-212a, (S)-N-(2-(5-Fluoro-2-methoxypyridin-4-yl)-5,6,7,8-tetrahydro-4H-pyrazolo[1,5-a]azepin-4-yl)-1-methyl-3-(trifluoromethyl)-1H-pyrazole-5-carboxamide] was run?
Answer: < 250 nM

Question: For `O=C(N[C@H]1CCCn2nc(-c3ccnc(C(F)(F)F)c3)cc21)c1ccnc(OC(F)(F)F)c1` [Compound I-213a, (S)-2-(Trifluoromethoxy)-N-(2-(2-(trifluoromethyl)pyridin-4-yl)-4,5,6,7-tetrahydropyrazolo[1,5-a]pyridin-4-yl)isonicotinamide], which IC50 is on record?
Answer: < 250 nM

Question: How did the IC50 turn out when `COc1cc(C(=O)N[C@H]2CCCn3nc(-c4ccnc(C(F)(F)F)c4)nc32)ccn1` [Compound I-214a, (S)-2-Methoxy-N-(2-(2-(trifluoromethyl)pyridin-4-yl)-5,6,7,8-tetrahydro-[1,2,4]triazolo[1,5-a]pyridin-8-yl)isonicotinamide] was run?
Answer: < 250 nM

Question: Which IC50 does the source give for `O=C(N[C@H]1CCCn2nc(-c3ccnc(C(F)(F)F)c3)nc21)c1cncc(C(F)(F)F)n1` [Compound I-215a, (S)-6-(Trifluoromethyl)-N-(2-(2-(trifluoromethyl)pyridin-4-yl)-5,6,7,8-tetrahydro-[1,2,4]triazolo[1,5-a]pyridin-8-yl)pyrazine-2-carboxamide] here?
Answer: < 250 nM

Question: How did the IC50 turn out when `Cc1nc(C(F)(F)F)oc1C(=O)N[C@H]1CCCn2nc(-c3ccnc(C(F)(F)F)c3)nc21` [Compound I-216a, (S)-4-Methyl-2-(trifluoromethyl)-N-(2-(2-(trifluoromethyl)pyridin-4-yl)-5,6,7,8-tetrahydro-[1,2,4]triazolo[1,5-a]pyridin-8-yl)oxazole-5-carboxamide] was run?
Answer: < 250 nM

Question: `Cn1nc(C(F)(F)F)cc1C(=O)N[C@H]1CCCc2oc(-c3cc(C4CC4)ncc3F)nc21` [Compound I-217a, (S)-N-(2-(2-Cyclopropyl-5-fluoropyridin-4-yl)-4,5,6,7-tetrahydrobenzo[d]oxazol-4-yl)-1-methyl-3-(trifluoromethyl)-1H-pyrazole-5-carboxamide] was tested. Which IC50 did it give?
Answer: < 250 nM

Question: `Cc1nc(C(=O)N[C@H]2CCn3nc(-c4ccnc(C5CC5)c4)cc32)n(C)n1` [Compound I-218a, (S)-N-(2-(2-Cyclopropylpyridin-4-yl)-5,6-dihydro-4H-pyrrolo[1,2-b]pyrazol-4-yl)-1,3-dimethyl-1H-1,2,4-triazole-5-carboxamide] was tested. Which IC50 did it give?
Answer: 250 to 500 nM

Question: How did the IC50 turn out when `Cn1nc(C(F)(F)F)cc1C(=O)N[C@H]1CC(C)(C)Cn2nc(-c3ccnc(C(F)(F)F)c3)cc21` [Compound I-219a, (S)—N-(6,6-Dimethyl-2-(2-(trifluoromethyl)pyridin-4-yl)-4,5,6,7-tetrahydropyrazolo[1,5-a]pyridin-4-yl)-1-methyl-3-(trifluoromethyl)-1H-pyrazole-5-carboxamide] was run?
Answer: > 1000 nM

Question: For `CC1(C)C[C@H](NC(=O)c2cccc(C#N)c2)c2cc(-c3ccnc(C(F)(F)F)c3)nn2C1` [Compound I-220a, (S)-3-Cyano-N-(6,6-dimethyl-2-(2-(trifluoromethyl)pyridin-4-yl)-4,5,6,7-tetrahydropyrazolo[1,5-a]pyridin-4-yl)benzamide], which IC50 is on record?
Answer: 250 to 500 nM

Question: How did the IC50 turn out when `Cc1nc(C(=O)N[C@H]2CCn3nc(-c4ccnc(C(F)(F)F)c4)cc32)n(C)n1` [Compound I-221a, (S)-1,3-Dimethyl-N-(2-(2-(trifluoromethyl)pyridin-4-yl)-5,6-dihydro-4H-pyrrolo[1,2-b]pyrazol-4-yl)-1H-1,2,4-triazole-5-carboxamide] was run?
Answer: < 250 nM

Question: Which IC50 does the source give for `COc1cc(-c2cc3n(n2)CCC[C@@H]3NC(=O)c2cccc(C#N)c2)c(C)cn1` [Compound I-222a, (S)-3-Cyano-N-(2-(2-methoxy-5-methylpyridin-4-yl)-4,5,6,7-tetrahydropyrazolo[1,5-a]pyridin-4-yl)benzamide] here?
Answer: < 250 nM

Question: How did the IC50 turn out when `Cn1nc(C2CC2)nc1C(=O)N[C@H]1CCCc2oc(-c3ccnc(C4CC4)c3)nc21` [Compound I-223a, (S)-3-Cyclopropyl-N-(2-(2-cyclopropylpyridin-4-yl)-4,5,6,7-tetrahydrobenzo[d]oxazol-4-yl)-1-methyl-1H-1,2,4-triazole-5-carboxamide] was run?
Answer: < 250 nM

Question: For `Cn1nc(C2CC2)nc1C(=O)N[C@H]1CCn2nc(-c3ccnc(C(F)(F)F)c3)cc21` [Compound I-224a, (S)-3-Cyclopropyl-1-methyl-N-(2-(2-(trifluoromethyl)pyridin-4-yl)-5,6-dihydro-4H-pyrrolo[1,2-b]pyrazol-4-yl)-1H-1,2,4-triazole-5-carboxamide], which IC50 is on record?
Answer: < 250 nM

Question: `Cn1ncnc1C(=O)N[C@H]1CCn2nc(-c3ccnc(C(F)(F)F)c3)cc21` [Compound I-225a] was tested. Which IC50 did it give?
Answer: > 1000 nM

Question: For `O=C(N[C@H]1CCn2nc(-c3ccnc(C(F)(F)F)c3)cc21)c1ccnc(OC(F)F)c1` [Compound I-226a, (S)-2-(Difluoromethoxy)-N-(2-(2-(trifluoromethyl)pyridin-4-yl)-5,6-dihydro-4H-pyrrolo[1,2-b]pyrazol-4-yl)isonicotinamide], which IC50 is on record?
Answer: < 250 nM

Question: How did the IC50 turn out when `Cc1nc(C(=O)N[C@H]2CCCc3oc(-c4ccnc(C5CC5)c4)nc32)n(C)n1` [Compound I-227a, (S)-N-(2-(2-Cyclopropylpyridin-4-yl)-4,5,6,7-tetrahydrobenzo[d]oxazol-4-yl)-1,3-dimethyl-1H-1,2,4-triazole-5-carboxamide] was run?
Answer: > 1000 nM

Question: With `Cn1ncnc1C(=O)N[C@H]1CCCc2oc(-c3ccnc(C4CC4)c3)nc21` [Compound I-228a, (S)-N-(2-(2-Cyclopropylpyridin-4-yl)-4,5,6,7-tetrahydrobenzo[d]oxazol-4-yl)-1-methyl-1H-1,2,4-triazole-5-carboxamide] as the compound, how does the IC50 read?
Answer: > 1000 nM
